Source: US10975087B2, “Solid forms of tetrahydropyranyl amino-pyrrolopyrimidinone compounds” (ArQule, Inc., priority 2018, dated 2021)
Values joined by “and” are separate entries in the source; they are usually repeats but may differ in a detail not shown here. Identical values can stand only once. “Also recorded” adds a separate entry of the source.

What was measured:
Format in all cases: physicochemical
[1] = Accelerated storage conditions (75% RH/40° C. for 72 hours), XRPD
[2] = Karl Fischer coulometric titration (KF) water content
Procedure: Approximately 10-30 mg of solid material was accurately weighed into a vial. The solid was then manually introduced into the titration cell of a Mettler Toledo C30 Compact Titrator. The vial was back-weighed after the addition of the solid and the weight of the added solid entered on the instrument. Titration was initiated once the sample had fully dissolved in the cell. The water content was calculated automatically by the instrument as a percentage and the data printed.

[3] = Variable temperature X-ray powder diffraction (VT-XRPD)
Procedure: VT-XRPD analysis was carried out on a Philips X'Pert Pro Multipurpose diffractometer. The samples were scanned between 4 and 35.99° 2θ using Cu K radiation (α1 λ=1.54060 Å; α2=1.54443 Å; β=1.39225 Å; α1:α2 ratio=0.5) running in Bragg-Brentano geometry (step size 0.008° 2θ) using 40 kV/40 mA generator settings. Measurements were performed at each step of the temperature profile: 30° C. initial scan, 150° C., 200° C., 210° C., 230° C., and 30° C., final scan.

[4] = Dynamic vapor sorption (DVS); conditions: for Post-DVS XRPD analysis (form): after exposure to elevated humidity; for moisture uptake by DVS: at 90% RH
Procedure: Approximately 10-20 mg of sample was placed into a mesh vapor sorption balance pan and loaded into a DVS-1 dynamic vapor sorption balance by Surface Measurement Systems. […] After completion of the sorption cycle, the sample was dried using the same procedure to 0% RH and then a second sorption cycle back to 40% RH. Two cycles were performed. The weight change during the sorption/desorption cycles were plotted, allowing for the hygroscopic nature of the sample to be determined. XRPD analysis may be then carried out on any solid retained.

[5] = 7 day stability testing, open vials at 40° C./75% RH, ambient and 80° C.; conditions: for XRPD analysis after storage for 1 week: 80° C., and ambient temperature; for Purity after 1 week (%) / area % purity and form changes after 1 week: open vials; for T = 0 purity (%): T = 0, before storage; for area % purity and form changes after 1 week: ambient, 40° C./75% RH and 80° C.
[6] = Hydration studies in water/acetone mixtures; conditions: for Hydration study result (solid by XRPD): 5 days; for solid obtained in hydration study: the other experiments (remaining water contents/temperatures)
Procedure: Hydration experiments were performed at 25° C. and 50° C. in water/acetone mixtures with the following water content (volume %): 2%, 5%, and 20%. The samples were prepared by adding 250 μL of the water/acetone mixture to 15 mg of the salt sample. The samples were stirred at 25° C. or at 50° C. After 2 days, the samples were inspected for the presence of solid. If solid was not observed, additional salt material was added to the dissolved samples. Samples were stirred for an additional 3 days. After 5 days, samples were filtered and the solid obtained was analyzed by XRPD.

[7] = Thermodynamic solubility pH measurements; conditions: for Solubility (mg/mL): Input Solvent pH 6.5, 25° C.; for XRPD after thermodynamic solubility studies: respective buffer
Procedure: After 2 hours at 25° C., the pH of each slurry was measured and the pH was adjusted, where required. After 24 hours at 25° C., the pH of each slurry was measured and the pH was adjusted, where required. After 48 hours at 25° C., the slurries were separated by centrifugation. The solids were analyzed by XRPD, while the pH of the separated liquors were also measured.

[8] = Salt disproportionation studies (slurry in deionized water); conditions: for XRPD after salt disproportionation study, 48 hours / measured pH after slurrying in water: 48 hours
Procedure: Samples of salts described herein were prepared for disproportionation studies. Approximately 15 mg of the salt material was suspended in 4 mL of deionized water at ambient temperature (ca. 22° C.). The slurry of the salt was shaken at ambient temperature and analyzed after: 1 h, 24 h, and 48 h. Each sample was filtered using a centrifuge filter. The solid was analyzed by XRPD. pH measurements were performed for the solution (three pH measurements were carried out for each sample and the average pH was calculated).

[9] = 2% and 5% water in acetone, 25° C.
[10] = 2% water in water/acetone, 25° C., Form = form of the same salt
[11] = 2% water in water/acetone, 50° C., Form = form of the same salt
[12] = 5% water in water/acetone, 25° C., Form = form of the same salt
[13] = 5% water in water/acetone, 50° C., Form = form of the same salt
[14] = 20% water in water/acetone, 25° C.
[15] = 20% water in water/acetone, 50° C.
[16] = Input Solvent Water, 25° C., 48 hours
[17] = Input Solvent pH 1, 25° C., 48 hours
[18] = Input Solvent pH 4.5, 25° C., 48 hours

O=S(=O)(O)c1cccc2c(S(=O)(=O)O)cccc12
stability under accelerated storage conditions (XRPD) [1]: decreased crystallinity

O=C(c1ccc(Oc2ccccc2)cc1Cl)c1c[nH]c2ncnc(N[C@@H]3CC[C@@H](CO)OC3)c12 [Form 10, (2-chloro-4-phenoxyphenyl)(4-(((3R,6S)-6-(hydroxymethyl)tetrahydro-2H-pyran-3-yl)amino)-7H-pyrrolo[2,3-d]pyrimidin-5-yl)methanone]
KF moisture (water) content [2]: 1.48% | KF water content in equivalents [2]: 0.4 equivalents | VT-XRPD form upon heating to 150° C. ([3]; 150° C.): persisted upon heating to 150 °C with poor crystallinity | VT-XRPD form at 230° C. ([3]; 230° C.): became amorphous | Identity ([3]; VT-XRPD Run 1, Temp 30° C.): Form 10 | Identity ([3]; VT-XRPD Run 2, Temp 150° C.): Form 10 | Identity ([3]; VT-XRPD Run 3, Temp 200° C., two forms printed in two cells): Form 10; also recorded: Form 12 | Identity ([3]; VT-XRPD Run 4, Temp 210° C.): Form 12 | Identity ([3]; VT-XRPD Run 5, Temp 230° C.): Amorphous | Identity ([3]; VT-XRPD Run 6, Temp 30° C.): Amorphous | VT-XRPD form between ca. 200° C. and ca. 210° C. ([3]; ca. 200° C. to ca. 210° C.): converted to Form 12 | VT-XRPD form upon cooling to 30° C. ([3]; cooling to 30° C.): remained amorphous | hygroscopic nature by DVS [4]: slightly hygroscopic | Post-DVS XRPD analysis (form) [4]: no change in form, but reduction in crystallinity | moisture uptake by DVS [4]: 0.94%

O=C(c1ccc(Oc2ccccc2)cc1Cl)c1c[nH]c2ncnc(N[C@@H]3CC[C@@H](CO)OC3)c12.O=S(=O)(O)c1ccccc1 [besylate Form 1]
XRPD analysis after storage for 1 week ([5]; 40° C./75% RH): no change in form from the input material | Purity after 1 week (%) ([5]; 40° C./75% RH): 97.8% | Purity after 1 week (%) ([5]; 80° C.): 97.4% | Purity after 1 week (%) ([5]; Ambient): 97.4% | T = 0 purity (%) [5]: 97.4% | area % purity and form changes after 1 week [5]: no decrease in area % purity or form changes | stability under accelerated storage conditions (XRPD) [1]: stable | KF moisture (water) content [2]: 0.24% and 2.0% | solid obtained in hydration study (XRPD) [6, 9]: recovered | Hydration study result (solid by XRPD) [6, 10]: Form 1 | Hydration study result (solid by XRPD) [6, 11]: Form 1 | Hydration study result (solid by XRPD) [6, 12]: Gum | Hydration study result (solid by XRPD) [6, 13]: Gum | Hydration study result (solid by XRPD) [6, 14]: Gum | Hydration study result (solid by XRPD) [6, 15]: Gum | solid obtained in hydration study [6]: gum | pH - 2 Hours at 25° C. ([7]; Input Solvent Water): 1.96 | pH - 24 Hours at 25° C. ([7]; Input Solvent Water): 1.68 | pH - 48 Hours at 25° C. ([7]; Input Solvent Water): 1.84 | Solubility [7, 16]: 200 µg/mL | pH - 2 Hours at 25° C. ([7]; Input Solvent pH 1): 0.19 | pH - 24 Hours at 25° C. ([7]; Input Solvent pH 1): 0.37 | pH - 48 Hours at 25° C. ([7]; Input Solvent pH 1): 1.07 | Solubility [7, 17]: 200 µg/mL | pH - 2 Hours at 25° C. ([7]; Input Solvent pH 4.5): 4.20 | pH - 24 Hours at 25° C. ([7]; Input Solvent pH 4.5): 3.80 | pH - 48 Hours at 25° C. ([7]; Input Solvent pH 4.5): 3.82 | Solubility [7, 18]: <100 µg/mL | pH - 2 Hours at 25° C. ([7]; Input Solvent pH 6.5): 3.31 | pH - 24 Hours at 25° C. ([7]; Input Solvent pH 6.5): 2.51 | pH - 48 Hours at 25° C. ([7]; Input Solvent pH 6.5): 3.26 | Solubility (mg/mL) ([7]; 48 hours): <LOD | XRPD after thermodynamic solubility studies ([7]; 25° C., 48 hours): poorly crystalline; also recorded: no change from the input material | XRPD after salt disproportionation study, 24 hours [8]: gel-like, amorphous solid | XRPD after salt disproportionation study, 48 hours [8]: staying partially crystalline; also recorded: no change from the input material | Post-DVS XRPD analysis (form) [4]: no change in form from the input material

O=C(c1ccc(Oc2ccccc2)cc1Cl)c1c[nH]c2ncnc(N[C@@H]3CC[C@@H](CO)OC3)c12.O=S(=O)(O)CCS(=O)(=O)O [edisylate Form 1]
XRPD analysis after storage for 1 week ([5]; 40° C./75% RH): no change in form from the input material | Purity after 1 week (%) ([5]; 40° C./75% RH): 98.1% | Purity after 1 week (%) ([5]; 80° C.): 97.5% | Purity after 1 week (%) ([5]; Ambient): 97.9% | T = 0 purity (%) [5]: 97.9% | area % purity and form changes after 1 week [5]: no decrease in area % purity or form changes | KF moisture (water) content [2]: 0.94% | XRPD after thermodynamic solubility studies ([7]; 25° C., 48 hours): no change from the input material | XRPD after salt disproportionation study, 48 hours [8]: no change from the input material | measured pH after slurrying in water [8]: 2.32 | Post-DVS XRPD analysis (form) [4]: no change in form from the input material | moisture uptake by DVS [4]: ca. 4.6%

Br.O=C(c1ccc(Oc2ccccc2)cc1Cl)c1c[nH]c2ncnc(N[C@@H]3CC[C@@H](CO)OC3)c12 [hydrobromide Form 1]
XRPD analysis after storage for 1 week ([5]; 40° C./75% RH): no change in form from the input material | stability under accelerated storage conditions (XRPD) [1]: stable | KF moisture (water) content [2]: 7.39% | solid obtained in hydration study (XRPD) [6, 9]: recovered | solid obtained in hydration study (XRPD) ([6]; 2% water in acetone, 50° C.): potentially new form | Hydration study result (solid by XRPD) [6, 10]: Form 1 | Hydration study result (solid by XRPD) [6, 11]: low crystallinity | Hydration study result (solid by XRPD) [6, 12]: Form 1 | Hydration study result (solid by XRPD) [6, 13]: Gum | Hydration study result (solid by XRPD) [6, 14]: Gum | Hydration study result (solid by XRPD) [6, 15]: Gum | solid obtained in hydration study [6]: gum | XRPD after thermodynamic solubility studies ([7]; 25° C., 48 hours): no change from the input material | XRPD after salt disproportionation study, 48 hours [8]: no change from the input material | Post-DVS XRPD analysis (form) [4]: no change in form from the input material | moisture uptake by DVS [4]: ca. 7.0%

Br.O=C(c1ccc(Oc2ccccc2)cc1Cl)c1c[nH]c2ncnc(N[C@@H]3CC[C@@H](CO)OC3)c12 [hydrobromide Form 2]
XRPD analysis after storage for 1 week ([5]; 40° C./75% RH): no change in form from the input material | KF moisture (water) content [2]: 1.97% | pH - 2 Hours at 25° C. ([7]; Input Solvent Water): 1.86 | pH - 24 Hours at 25° C. ([7]; Input Solvent Water): 1.34 | pH - 48 Hours at 25° C. ([7]; Input Solvent Water): 1.86 | Solubility [7, 16]: 500 µg/mL | pH - 2 Hours at 25° C. ([7]; Input Solvent pH 1): 0.27 | pH - 24 Hours at 25° C. ([7]; Input Solvent pH 1): 0.40 | pH - 48 Hours at 25° C. ([7]; Input Solvent pH 1): 0.78 | Solubility [7, 17]: <100 µg/mL | pH - 2 Hours at 25° C. ([7]; Input Solvent pH 4.5): 3.97 | pH - 24 Hours at 25° C. ([7]; Input Solvent pH 4.5): 3.62 | pH - 48 Hours at 25° C. ([7]; Input Solvent pH 4.5): 3.84 | Solubility [7, 18]: <100 µg/mL | pH - 2 Hours at 25° C. ([7]; Input Solvent pH 6.5): 3.53 | pH - 24 Hours at 25° C. ([7]; Input Solvent pH 6.5): 2.61 | pH - 48 Hours at 25° C. ([7]; Input Solvent pH 6.5): 3.44 | Solubility (mg/mL) ([7]; 48 hours): <LOD | XRPD after thermodynamic solubility studies, pH 1 ([7]; pH 1, 25° C., 48 hours): hydrobromide Form 1 and 2 are observed | XRPD after thermodynamic solubility studies, water and pH 4.5 and 6.5 ([7]; water and pH 4.5 and 6.5, 25° C., 48 hours): poorly crystalline | XRPD after salt disproportionation study, 24 hours [8]: partially crystalline | XRPD after salt disproportionation study, 48 hours [8]: staying hydrobromide Form 2 | measured pH after slurrying in water [8]: 1.86 | Post-DVS XRPD analysis (form) [4]: no change in form from the input material | moisture uptake by DVS [4]: ca. 2.4%

Cl.O=C(c1ccc(Oc2ccccc2)cc1Cl)c1c[nH]c2ncnc(N[C@@H]3CC[C@@H](CO)OC3)c12 [hydrochloride Form 2]
stability under accelerated storage conditions (XRPD) [1]: decreased crystallinity

O=C(O)/C=C\C(=O)O.O=C(c1ccc(Oc2ccccc2)cc1Cl)c1c[nH]c2ncnc(N[C@@H]3CC[C@@H](CO)OC3)c12 [maleate Form 1]
stability under accelerated storage conditions (XRPD) [1]: stable

O=C(O)C(=O)O.O=C(c1ccc(Oc2ccccc2)cc1Cl)c1c[nH]c2ncnc(N[C@@H]3CC[C@@H](CO)OC3)c12 [oxalate Form 3]
stability under accelerated storage conditions (XRPD) [1]: stable
